Key:
[1] = tested on: corneal incision, rabbit eyes ex vivo; assay: IOP required to produce fluid leakage from corneal incision (IOPL) after PTB, ex vivo; conditions: 488 nm
[2] = Absorption maxima and absorption coefficients of photosensitizers; format: physicochemical; conditions: for absorption coefficient at the laser wavelength used: RB at 514 nm, Fl at 488 nm, MB at 661 nm, R-5-P at 488 nm, N-HPT at 351 nm
From the text: The photosensitizers were used as received with the exception of N-HPT which was recrystallized twice from aqueous ethanol before use.

[3] = tested on: corneal incision, rabbit eyes ex vivo; assay: IOP required to produce fluid leakage from corneal incision (IOPL) after PTB, ex vivo; conditions: for mean IOPL: 4.5 mM, 351 nm
Protocol: PTB can be used to seal or repair a tissue, e.g., a wound, e.g., a corneal wound. This example illustrates the experimental procedure designed to test the efficacy of PTB, as described herein, using mammalian corneas ex vivo. Experiments were performed according to the following procedure.
Rabbit eyes were received on ice (Pel-Freez Biologicals) approximately 17-24 hours after sacrifice and enucleation. The eyes were kept on ice and used the same day. The eye to be studied was mounted on a plastic-covered polystyrene block and fixed in position by needles inserted through the extraocular muscles into the polystyrene. The eye was then placed under a dissecting microscope (Reichert Scientific Instruments, Ill.) allowing visualization of the treated area during the entire procedure. A 27 G needle was inserted parallel to the iris, 2 mm anterior to the limbus into clear cornea, and positioned above the lens in the anterior chamber. The needle was connected to both a blood pressure transducer (Harvard Apparatus, Mass.) and a mini-infuser 400 (Bard Harvard) via a T coupler. The pressure transducer consists of a transducer element that is hard wired to an amplifier box and uses a semi-disposable dome with an integral silicone rubber membrane. Pressure inside the dome is transmitted through the membrane to a plastic button whose motion is translated to a voltage. The voltage generated by the transducer amplifier combination is proportional to the […] intraocular pressure (IOP). Signals from the transducer amplifier were recorded using a Macintosh G3 Power book equipped with a PCMICA (DAQCARD—1200) data acquisition card (National Instruments, Tex.). Data acquisition was controlled using programs written using the LabView 4 software package (National Instruments, Tex.). The voltage from the transducer and amplifier was converted to pressure by calibrating with a standing manometer.
Experiments on individual eyes were initiated by increasing the IOP to 30-40 mm Hg, using water infusion at a rate of 1 mL per minute. An incision was made in the cornea, 1 mm from the limbus and parallel to the iris, using a 3.5 mm angled keratome (Becton Dickinson Co.). For each eye the IOP required to produce fluid leakage from the incision (IOPL) was recorded pre- and post-PTB treatment. A photosensitizer, dissolved in phosphate buffer solution (PBS, pH 7.2, Gibco BRL) was applied to the walls of the incision using a Gastight, 50 μl syringe (Hamilton Co.) with a 27 G needle.
Irradiations employed a continuous wave (CW) argon-ion laser (Innova 100; Coherent, Inc., Palo Alto, Calif.) at 488 nm (for Fl and R-5-P), 514.5 nm (for RB) or 351 nm (for NHPT). An argon-ion-pumped dye laser (CR-599; Coherent) with 4-dicyanomethylene-2-methyl-6-(p-dimethylaminostyryl)-4H-pyran dye (Exciton, Inc., Dayton, Ohio) was used for irradiation at 661 nm (for MB). Laser light was coupled into a 1 mm diameter quartz fiber and a 1 cm diameter spot on the tissue was created by using a combination of 1 and 2 inch focal length, S1-UV grade fused silica, biconvex lenses (Esco Products), mounted in a SM1 series cage assembly (Thorlabs, N.J.). The 1 cm diameter circular spot was sufficient to cover the entire incision and the optics were adjusted so that the laser light was incident on the cornea at an angle approximately 45° to the plane of the incision. Dose response curves were obtained by varying the duration of the irradiation at a constant irradiance. In separate experiments the effects of laser irradiance were investigated by comparison of the same delivered dose using different irradiances. The doses used ranged from 124 to 1524 J/cm^2 and the irradiances used were 0.64, 1.27, 2.55 and 3.86 W/cm^2. The laser exposure time varied from 33 seconds for the lowest dose using the highest irradiance to 26 minutes, 27 seconds for the highest dose using the lowest irradiance. The IOPL was recorded immediately following treatment. […]

Row | SMILES | IOPL ([1]; 0.6 mM Fl, 762 J/cm^2 at 3.82 W/cm^2) | absorption maximum [2] | absorption coefficient at the laser wavelength used [2] | post-treatment IOPL ([3]; MB 3 mM, 661 nm, 0.64 W/cm^2, doses 508, 762 and 1016 J/cm^2) | mean IOPL ([3]; 0.64 W/cm2, 254 J/cm2) | mean IOPL ([3]; 0.64 W/cm2, 508 J/cm2) | post PTB treatment IOPL value ([1]; 11 mM R-5-P, 762 and 1016 J/cm^2, 1.27-3.82 W/cm^2, p<0.05)
1 | O=C1OC2(c3ccc(O)cc3Oc3cc(O)ccc32)c2ccccc21 [Fl, fluorescein] | 116±40 mm Hg | – | – | – | – | – | –
2 | CN(C)c1ccc2nc3ccc(=[N+](C)C)cc-3sc2c1 [MB, methylene blue] | – | 664 nm | 15600 dm^3 mol^−1 cm^−1 | did not increase | – | – | –
3 | On1ccccc1=S [N-HPT, N-hydroxypyridine-2-(1H)-thione] | – | 314 nm | 2110 dm^3 mol^−1 cm^−1 | – | 60±23 mm Hg | 126±40 mm Hg | –
4 | Cc1cc2nc3c(=O)[nH]c(=O)nc-3n(C[C@H](O)[C@H](O)[C@H](O)COP(=O)(O)O)c2cc1C [R-5-P, riboflavin-5-phosphate] | – | 445 nm | 4330 dm^3 mol^−1 cm^−1 | – | – | – | significantly increased

Source: US8215314B2, “Photochemical tissue bonding” (The General Hospital Corporation, priority 2000, dated 2012)
